Source: paper PMC3678025, “Structure of the Tubulin/FtsZ-Like Protein TubZ from Pseudomonas Bacteriophage ΦKZ” (Journal of Molecular Biology, 2013)

What was measured:
ΦKZ TubZ-His6 = molecular target: T1, ΦKZ TubZ-His6 (Pseudomonas phage phiKZ, UniProt Q8SDC3); assay: X-ray crystal structure; type: binding; conditions: 2.0 Å monomer (GDP retained through purification, 150 mM Tris-Cl pH 8.0) and 1.7 Å protofilament (crystallised with GTPγS, pH 5.5); GTPase active site
T1 construct: gene PHIKZ039; used for crystallography
T1 sequence (Q8SDC3 whole entry): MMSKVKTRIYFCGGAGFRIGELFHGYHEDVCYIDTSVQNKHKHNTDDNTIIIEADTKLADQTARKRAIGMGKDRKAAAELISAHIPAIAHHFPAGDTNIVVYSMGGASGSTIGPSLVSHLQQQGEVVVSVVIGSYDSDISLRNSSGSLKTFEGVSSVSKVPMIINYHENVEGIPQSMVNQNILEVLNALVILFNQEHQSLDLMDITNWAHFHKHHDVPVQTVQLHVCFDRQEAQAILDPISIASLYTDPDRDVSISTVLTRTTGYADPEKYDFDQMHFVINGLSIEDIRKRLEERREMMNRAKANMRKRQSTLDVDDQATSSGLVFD

Wild-type ΦKZ TubZ = molecular target: T2, Wild-type ΦKZ TubZ (Pseudomonas phage phiKZ, UniProt Q8SDC3); assay: […]° light scattering of polymerisation, electron cryo-microscopy; type: biochemical; conditions: 2 μM protein, 20 or 200 μM GTP, 200 mM KCl, 5 mM MgCl2, pH 8.0, 25 °C; induces polymerisation
T2 construct: gene PHIKZ039; used for light scattering and electron microscopy
T2 sequence (Q8SDC3 whole entry): as above

| Structure (SMILES) | X-ray crystal structure (ΦKZ TubZ-His6) | 90° light scattering of polymerisation, electron cryo-microscopy (Wild-type ΦKZ TubZ) |
| --- | --- | --- |
| Nc1nc2c(ncn2[C@@H]2O[C@H](COP(=O)(O)OP(=O)(O)O)[C@@H](O)[C@H]2O)c(=O)[nH]1 [GDP] | The GTPase active site within the subunit was occupied by GDP, which was retained | – |
| Nc1nc2c(ncn2[C@@H]2O[C@H](COP(=O)(O)OP(=O)(O)OP(=O)(O)O)[C@@H](O)[C@H]2O)c(=O)[nH]1 [GTP] | – | ΦKZ TubZ filaments proved extremely dynamic in the presence of GTP |
